From ChEMBL document CHEMBL1201862, “PubChem BioAssay data set” (2004)
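Step 1: Grow cells in 96-well plates. Step 2: Expose to compound for 48 hours at 5 concentrations. Step 3: Interpolate endpoints linearly; if unreached, use highest concentration. At the GI50, growth is halved.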 Activity calls are given as the source filed them. No stated cut-off is given here; in the data, active = GI50 up to about 1.1 µM and inactive = higher.

Experiments:
Test in all cases: growth of human tumour cells (NCI), 48 h
SNB-19 = tested on: SNB-19
A549 = tested on: A549
HT-29 = tested on: HT-29
MDA-N = tested on: MDA-N
Malme-3M = tested on: Malme-3M
SK-MEL-5 = tested on: SK-MEL-5
RXF 393 = tested on: RXF 393
NCI-H23 = tested on: NCI-H23
Hs-578T = tested on: Hs-578T
COLO 205 = tested on: COLO 205
TK-10 = tested on: TK-10
CAKI-1 = tested on: CAKI-1
IGROV-1 = tested on: IGROV-1
MDA-MB-231 = tested on: MDA-MB-231
DU-145 = tested on: DU-145
SF-539 = tested on: SF-539
SN12C = tested on: SN12C
HL-60 = tested on: HL-60
HOP-92 = tested on: HOP-92
A498 = tested on: A498

| Structure (SMILES) | GI50 (SNB-19) | GI50 (A549) | GI50 (HT-29) | GI50 (MDA-N) | GI50 (Malme-3M) | GI50 (SK-MEL-5) | GI50 (RXF 393) | GI50 (NCI-H23) | GI50 (Hs-578T) | GI50 (COLO 205) | GI50 (TK-10) | GI50 (CAKI-1) | GI50 (IGROV-1) | GI50 (MDA-MB-231) | GI50 (DU-145) | GI50 (SF-539) | GI50 (SN12C) | GI50 (HL-60) | GI50 (HOP-92) | GI50 (A498) |
| --- | --- | --- | --- | --- | --- | --- | --- | --- | --- | --- | --- | --- | --- | --- | --- | --- | --- | --- | --- | --- |
| CCOC(=O)NC(=S)NC(C)c1ccccc1 (stereo not given) | > 100 µM (inactive) | > 100 µM (inactive) | > 100 µM (inactive) | > 100 µM (inactive) | > 100 µM (inactive) | > 100 µM (inactive) | > 100 µM (inactive) | > 100 µM (inactive) | > 100 µM (inactive) | > 100 µM (inactive) | > 100 µM (inactive) | > 100 µM (inactive) | > 100 µM (inactive) | > 100 µM (inactive) | > 100 µM (inactive) | – | – | – | – | – |
| O=C1OC(c2ccc(Cl)cc2)=N/C1=C\c1ccccc1 | > 100 µM (inactive) | > 100 µM (inactive) | > 100 µM (inactive) | > 100 µM (inactive) | – | > 100 µM (inactive) | > 100 µM (inactive) | > 100 µM (inactive) | > 100 µM (inactive) | > 100 µM (inactive) | > 100 µM (inactive) | > 100 µM (inactive) | > 100 µM (inactive) | > 100 µM (inactive) | > 100 µM (inactive) | > 100 µM (inactive) | > 100 µM (inactive) | 62.7 µM (inactive) | > 100 µM (inactive) | – |
| Cc1cccc(C(C)(C)C)c1NC(=O)/C(Cc1nc2ccc([N+](=O)[O-])cc2nc1O)=N\NC(=O)C[N+](C)(C)C | > 100 µM (inactive) | > 100 µM (inactive) | > 100 µM (inactive) | > 100 µM (inactive) | > 100 µM (inactive) | > 100 µM (inactive) | – | > 100 µM (inactive) | > 100 µM (inactive) | 71.8 µM (inactive) | – | > 100 µM (inactive) | > 100 µM (inactive) | > 100 µM (inactive) | > 100 µM (inactive) | > 100 µM (inactive) | > 100 µM (inactive) | > 100 µM (inactive) | 47.2 µM (inactive) | 60.7 µM (inactive) |
| Cc1cc(N(CCC#N)CCC#N)ccc1C(/N=N/c1ccccc1)=N\NC(=O)c1cc(Cl)ccc1O | 49 µM (inactive) | 29.4 µM (inactive) | 15.5 µM (inactive) | 32.6 µM (inactive) | 27.9 µM (inactive) | 21.5 µM (inactive) | 23.3 µM (inactive) | 13.1 µM (inactive) | 23.8 µM (inactive) | 19.7 µM (inactive) | 14.9 µM (inactive) | 46.8 µM (inactive) | 26.2 µM (inactive) | 27.1 µM (inactive) | 27.5 µM (inactive) | 20.5 µM (inactive) | 26.5 µM (inactive) | 37.9 µM (inactive) | – | 59.2 µM (inactive) |
| O=C1Nc2c(Cl)cc(Cl)cc2C1=O | > 100 µM (inactive) | 19.3 µM (inactive) | 27.4 µM (inactive) | 8.99 µM (inactive) | 1.94 µM (inactive) | 15.3 µM (inactive) | 13.6 µM (inactive) | 23.5 µM (inactive) | 16.4 µM (inactive) | 23.5 µM (inactive) | 95.9 µM (inactive) | 17.9 µM (inactive) | 17.7 µM (inactive) | 21.2 µM (inactive) | – | 17.2 µM (inactive) | 17.9 µM (inactive) | 2.4 µM (inactive) | 24.1 µM (inactive) | 23.2 µM (inactive) |
| Cc1ccc2nc(CN3CCCC(O)C3)cc(=O)n2c1 (stereo not given) | > 100 µM (inactive) | > 100 µM (inactive) | > 100 µM (inactive) | > 100 µM (inactive) | > 100 µM (inactive) | – | – | > 100 µM (inactive) | > 100 µM (inactive) | > 100 µM (inactive) | > 100 µM (inactive) | > 100 µM (inactive) | > 100 µM (inactive) | > 100 µM (inactive) | > 100 µM (inactive) | > 100 µM (inactive) | > 100 µM (inactive) | > 100 µM (inactive) | > 100 µM (inactive) | – |
| Cc1cc2nnn(C3CCCCO3)c2cc1C (stereo not given) | > 100 µM (inactive) | > 100 µM (inactive) | > 100 µM (inactive) | > 100 µM (inactive) | > 100 µM (inactive) | > 100 µM (inactive) | > 100 µM (inactive) | > 100 µM (inactive) | > 100 µM (inactive) | > 100 µM (inactive) | > 100 µM (inactive) | > 100 µM (inactive) | > 100 µM (inactive) | > 100 µM (inactive) | > 100 µM (inactive) | > 100 µM (inactive) | > 100 µM (inactive) | – | – | – |
| Oc1ccc2ccccc2c1/N=N/c1ccc(Br)cc1 | > 100 µM (inactive) | > 100 µM (inactive) | > 100 µM (inactive) | > 100 µM (inactive) | 66.1 µM (inactive) | > 100 µM (inactive) | > 100 µM (inactive) | > 100 µM (inactive) | 24.7 µM (inactive) | > 100 µM (inactive) | 59.6 µM (inactive) | > 100 µM (inactive) | 36.1 µM (inactive) | > 100 µM (inactive) | > 100 µM (inactive) | – | > 100 µM (inactive) | > 100 µM (inactive) | 35.3 µM (inactive) | – |
| COC(=O)c1c(O)ccc2c1c1c(n2Cc2ccccc2)C(=O)c2ccccc2C1 | 95.5 µM (inactive) | 30.8 µM (inactive) | 18.4 µM (inactive) | 43.4 µM (inactive) | 69.5 µM (inactive) | 50 µM (inactive) | 21.3 µM (inactive) | 41.2 µM (inactive) | 86.5 µM (inactive) | 15.4 µM (inactive) | 65.9 µM (inactive) | 36.5 µM (inactive) | 40.6 µM (inactive) | 39.7 µM (inactive) | 99.3 µM (inactive) | 26.2 µM (inactive) | 21.6 µM (inactive) | 12.6 µM (inactive) | – | 64.7 µM (inactive) |
| COc1ccc2c(c1)-c1nc(=O)n(CCCN(C)C)c3ccc([N+](=O)[O-])c(c13)N2 | 2.5 µM (inactive) | 0.469 µM (active) | 0.473 µM (active) | 3.22 µM (inactive) | 0.752 µM (active) | 0.875 µM (active) | – | 1.1 µM (active) | 1.56 µM (inactive) | 0.752 µM (active) | 1.09 µM (active) | 0.434 µM (active) | 0.413 µM (active) | 0.561 µM (active) | 0.776 µM (active) | 0.421 µM (active) | 0.752 µM (active) | 1.86 µM (inactive) | 1.57 µM (inactive) | 3.39 µM (inactive) |
| CCOC(=O)c1c(O)nc2cccc3c2c1-c1cccnc1S3 | 33.8 µM (inactive) | 18.9 µM (inactive) | 29.4 µM (inactive) | 39 µM (inactive) | 34 µM (inactive) | 11.7 µM (inactive) | 11 µM (inactive) | 21 µM (inactive) | 22.4 µM (inactive) | 35.9 µM (inactive) | 44.7 µM (inactive) | 16.7 µM (inactive) | 16.9 µM (inactive) | 39 µM (inactive) | 44.6 µM (inactive) | 27.6 µM (inactive) | 39.9 µM (inactive) | 20.3 µM (inactive) | – | – |
| c1cc(C2N3CCCN2CC3)ccn1 (stereo not given) | > 100 µM (inactive) | > 100 µM (inactive) | > 100 µM (inactive) | 35.1 µM (inactive) | 21.9 µM (inactive) | 48.2 µM (inactive) | > 100 µM (inactive) | 68.2 µM (inactive) | 22.8 µM (inactive) | > 100 µM (inactive) | > 100 µM (inactive) | > 100 µM (inactive) | 96.6 µM (inactive) | > 100 µM (inactive) | > 100 µM (inactive) | – | 79.8 µM (inactive) | 40.2 µM (inactive) | – | > 100 µM (inactive) |
| O=C(Nc1ccccc1)n1[nH]c(=O)n(-c2ccccc2)c1=O | > 100 µM (inactive) | > 100 µM (inactive) | > 100 µM (inactive) | > 100 µM (inactive) | > 100 µM (inactive) | > 100 µM (inactive) | – | > 100 µM (inactive) | > 100 µM (inactive) | > 100 µM (inactive) | > 100 µM (inactive) | > 100 µM (inactive) | – | > 100 µM (inactive) | > 100 µM (inactive) | > 100 µM (inactive) | > 100 µM (inactive) | > 100 µM (inactive) | > 100 µM (inactive) | > 100 µM (inactive) |
| O=C(O)Cc1cccc2c1OC(c1ccccc1)C(C(=O)c1ccccc1)C2=O (stereo not given) | 45.9 µM (inactive) | 36.3 µM (inactive) | > 10 µM (inactive) | 33.8 µM (inactive) | 63.4 µM (inactive) | > 100 µM (inactive) | > 100 µM (inactive) | 29.5 µM (inactive) | > 100 µM (inactive) | 67.6 µM (inactive) | 26.5 µM (inactive) | 42.1 µM (inactive) | 38.7 µM (inactive) | 32.7 µM (inactive) | 69 µM (inactive) | 51.5 µM (inactive) | 45.8 µM (inactive) | 26.5 µM (inactive) | – | – |
| COC(=O)c1cc(C(=CCC[C@H]2CC[C@@]3(C)C(CCC4C3CC[C@@]3(C)C4CC[C@@H]3C(C)CCCC(C)C)C2)c2cc(Cl)c(OC(=O)c3ccccc3)c(C(=O)OC)c2)cc(Cl)c1OC(=O)c1ccccc1 (stereo not given in full) | > 10 µM (inactive) | > 10 µM (inactive) | > 10 µM (inactive) | > 10 µM (inactive) | > 10 µM (inactive) | > 10 µM (inactive) | > 10 µM (inactive) | > 10 µM (inactive) | > 10 µM (inactive) | > 10 µM (inactive) | > 10 µM (inactive) | > 10 µM (inactive) | > 10 µM (inactive) | > 10 µM (inactive) | > 10 µM (inactive) | > 10 µM (inactive) | > 10 µM (inactive) | > 10 µM (inactive) | > 10 µM (inactive) | – |
